Experimental data as given in patent US20260216238A1, “TETRATHIOMOLYBDIC ACID FOR USE IN TREATING COPPER METABOLISM-ASSOCIATED DISEASES OR DISORDERS (WILSON DISEASE)” (Alexion Pharmaceuticals, Inc., priority 2023, published 2026).

Test system: patients with Wilson disease (WD)
Experiment: UWDRS Part III total score, functional subscale and individual items (neurological examination)
Assay type: in vivo, human
Experimental: The UWDRS scoring system was developed specifically for the motor and movement disorders associated with chronic copper neurotoxicity in WD. Some individual items/subscales of the UWDRS Part III (arising from a chair, gait, handwriting, and speech) in addition to the UWDRS Parts I, II, and III overall, were assessed to further define the range of burdensome signs and symptoms of WD, so as to further understand the assessment of treatment effects on patients with WD. The UWDRS scores for consciousness (Part I) and abnormal neurologic examination findings (Part III) will be determined by a trained neurologist rater who is blinded to study treatment randomization. These scores were used to provide a rigorous dataset for evaluating changes from baseline.
Unified Wilson Disease Rating Scale (Parts I, II, and III): The UWDRS is a clinical rating scale designed to evaluate the neurological manifestations of WD that generally can be divided into 3 movement disorder syndromes: dystonic, ataxic, and Parkinsonian syndrome. The UWDRS comprises 3 parts: UWDRS Part I (level of consciousness, item 1), UWDRS Part II (a patient-reported review of daily activity items [disability], items 2 to 11), and UWDRS Part III (a detailed neurological examination, items 12 to 34).
The UWDRS Part I and Part III were assessed by a neurologist who is blinded to the treatment randomization, while UWDRS Part II may be reported to a non-blinded member of the study team by the patient, family member, or caregiver. The UWDRS has not been formally evaluated in adolescents. However, the components of Part I (level of consciousness), Part II (patient or caregiver-reported disability) and Part III (neurologic examination findings) were not fundamentally different between adults and adolescents. Patients aged 12 years and older were expected to be able to comply with UWDRS assessments.
Pooled results from all such participants will be integrated together into one timeline to allow analyses of changes in UWDRS, long-term copper control, and long-term safety laboratory data.
Endpoints (directly measured non-ceruloplasmin-bound copper [dNCC], UWDRS III (rater blinded) total and individual item scores, Clinical Global Impression-Improvement [CGI-I]) were evaluated at baseline (BL) and Week 48 (W48). Normalization (score decrease to 0), improvement (≥1 point decrease), stability (no change), or worsening (≥1 point increase) of total and individual UWDRS III item scores were evaluated at W48.

[1] = Week 144, Study 301 TTM long term set
[2] = difference of changes Wk 48 - BL

Substance: bis-choline tetrathiomolybdate [TTM]
- UWDRS Part III-handwriting (0-4) change from baseline, Mean [1]: −0.5
- UWDRS Part III-speech (0-4) change from baseline, LSM [1]: −0.3
- UWDRS Part III-speech (0-4) change from baseline, Mean [1]: −0.2
- UWDRS symptom: Arising from chair (Wk 48): 86
- UWDRS symptom: Arm and hand Dystonia (Wk 48): 67
- UWDRS symptom: Cervical Dystonia (Wk 48): 82
- UWDRS symptom: Chorea (Wk 48): 91
- UWDRS symptom: Facial Expression (Wk 48): 58
- UWDRS symptom: Finger Taps (Wk 48): 59
- UWDRS symptom: Finger to Nose (Wk 48): 76
- UWDRS symptom: Gait (Wk 48): 63
- UWDRS symptom: Handwriting (Wk 48): 71
- UWDRS symptom: Head Tremor (Wk 48): 89
- UWDRS symptom: Involuntary Crying (Wk 48): 99
- UWDRS symptom: Jaw Tremor (Wk 48): 99
- UWDRS symptom: Leg Ability (Wk 48): 66
- UWDRS symptom: Oculomotor (Wk 48): 87
- UWDRS symptom: Postural Arm Tremor (Wk 48): 58
- UWDRS symptom: Postural Leg Tremor (Wk 48): 73
- UWDRS symptom: Posture (Wk 48): 71
- UWDRS symptom: Pyramidal Signs (Wk 48): 87
- UWDRS symptom: RAM of Hands (Wk 48): 62
- UWDRS symptom: Rigidity (Wk 48): 72
- UWDRS symptom: Speech (Wk 48): 51
- UWDRS symptom: Stereotyped Actions (Wk 48): 89
- UWDRS symptom: Tremor at rest (Wk 48): 76
- UWDRS symptom: Wing-beating tremor (Wk 48): 67
- UWDRS symptom: Arising from chair, Change (Wk 48 - BL) (Wk 48 - BL): 1
- UWDRS symptom: Arm and hand Dystonia, Change (Wk 48 - BL) (Wk 48 - BL): 3
- UWDRS symptom: Cervical Dystonia, Change (Wk 48 - BL) (Wk 48 - BL): 8
- UWDRS symptom: Chorea, Change (Wk 48 - BL) (Wk 48 - BL): 1
- UWDRS symptom: Facial Expression, Change (Wk 48 - BL) (Wk 48 - BL): 1
- UWDRS symptom: Finger Taps, Change (Wk 48 - BL) (Wk 48 - BL): 15
- UWDRS symptom: Finger to Nose, Change (Wk 48 - BL) (Wk 48 - BL): 9
- UWDRS symptom: Gait, Change (Wk 48 - BL) (Wk 48 - BL): 4
- UWDRS symptom: Handwriting, Change (Wk 48 - BL) (Wk 48 - BL): 16
- UWDRS symptom: Head Tremor, Change (Wk 48 - BL) (Wk 48 - BL): 5
- UWDRS symptom: Involuntary Crying, Change (Wk 48 - BL) (Wk 48 - BL): 0
- UWDRS symptom: Jaw Tremor, Change (Wk 48 - BL) (Wk 48 - BL): 0
- UWDRS symptom: Leg Ability, Change (Wk 48 - BL) (Wk 48 - BL): 4
- UWDRS symptom: Oculomotor, Change (Wk 48 - BL) (Wk 48 - BL): −2
- UWDRS symptom: Postural Arm Tremor, Change (Wk 48 - BL) (Wk 48 - BL): 9
- UWDRS symptom: Postural Leg Tremor, Change (Wk 48 - BL) (Wk 48 - BL): 5
- UWDRS symptom: Posture, Change (Wk 48 - BL) (Wk 48 - BL): 4
- UWDRS symptom: Pyramidal Signs, Change (Wk 48 - BL) (Wk 48 - BL): −2
- UWDRS symptom: RAM of Hands, Change (Wk 48 - BL) (Wk 48 - BL): 14
- UWDRS symptom: Rigidity, Change (Wk 48 - BL) (Wk 48 - BL): 14
- UWDRS symptom: Speech, Change (Wk 48 - BL) (Wk 48 - BL): 7
- UWDRS symptom: Stereotyped Actions, Change (Wk 48 - BL) (Wk 48 - BL): −4
- UWDRS symptom: Tremor at rest, Change (Wk 48 - BL) (Wk 48 - BL): 1
- UWDRS symptom: Wing-beating tremor, Change (Wk 48 - BL) (Wk 48 - BL): 3
- UWDRS symptom: Arising from chair, Difference (TTM − SoC) [2]: 4
- UWDRS symptom: Arm and hand Dystonia, Difference (TTM − SoC) [2]: 3
- UWDRS symptom: Cervical Dystonia, Difference (TTM − SoC) [2]: 5
- UWDRS symptom: Chorea, Difference (TTM − SoC) [2]: 6
- UWDRS symptom: Facial Expression, Difference (TTM − SoC) [2]: 4
- UWDRS symptom: Finger Taps, Difference (TTM − SoC) [2]: 20
- UWDRS symptom: Finger to Nose, Difference (TTM − SoC) [2]: 6
- UWDRS symptom: Gait, Difference (TTM − SoC) [2]: 2
- UWDRS symptom: Handwriting, Difference (TTM − SoC) [2]: 13
- UWDRS symptom: Head Tremor, Difference (TTM − SoC) [2]: 9
- UWDRS symptom: Involuntary Crying, Difference (TTM − SoC) [2]: 3
- UWDRS symptom: Jaw Tremor, Difference (TTM − SoC) [2]: 0
- UWDRS symptom: Leg Ability, Difference (TTM − SoC) [2]: 11
- UWDRS symptom: Oculomotor, Difference (TTM − SoC) [2]: 9
- UWDRS symptom: Postural Arm Tremor, Difference (TTM − SoC) [2]: 8
- UWDRS symptom: Postural Leg Tremor, Difference (TTM − SoC) [2]: 9
- UWDRS symptom: Posture, Difference (TTM − SoC) [2]: 1
- UWDRS symptom: Pyramidal Signs, Difference (TTM − SoC) [2]: 4
- UWDRS symptom: RAM of Hands, Difference (TTM − SoC) [2]: 31
- UWDRS symptom: Rigidity, Difference (TTM − SoC) [2]: 5
- UWDRS symptom: Speech, Difference (TTM − SoC) [2]: 0
- UWDRS symptom: Stereotyped Actions, Difference (TTM − SoC) [2]: 1
- UWDRS symptom: Tremor at rest, Difference (TTM − SoC) [2]: 4
- UWDRS symptom: Wing-beating tremor, Difference (TTM − SoC) [2]: 9
